In ChEMBL document CHEMBL1128249, “2,4-Diamino-5-substituted-quinazolines as inhibitors of a human dihydrofolate reductase with a site-directed mutation at position 22 and of the dihydrofolate reductases from Pneumocystis carinii and Toxoplasma gondii” (J Med Chem, 1995) one finds IC50 and Ki data, which are given here for 13 compounds.

Assay [1] concerns the target T1, Dihydrofolate reductase (Pneumocystis carinii, UniProt P16184).
T1 sequence (P16184 whole entry): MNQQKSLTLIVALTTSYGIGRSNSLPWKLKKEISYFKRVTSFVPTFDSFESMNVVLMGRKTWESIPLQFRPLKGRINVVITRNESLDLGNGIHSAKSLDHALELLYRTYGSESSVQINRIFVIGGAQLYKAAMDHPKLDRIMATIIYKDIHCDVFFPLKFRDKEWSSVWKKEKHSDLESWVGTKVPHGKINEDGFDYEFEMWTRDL
Description: Inhibitory activity against Pneumocystis carinii Dihydrofolate reductase

The target of assay [2] is T2, Dihydrofolate reductase (Rattus norvegicus, UniProt Q920D2).
T2 sequence (Q920D2 whole entry): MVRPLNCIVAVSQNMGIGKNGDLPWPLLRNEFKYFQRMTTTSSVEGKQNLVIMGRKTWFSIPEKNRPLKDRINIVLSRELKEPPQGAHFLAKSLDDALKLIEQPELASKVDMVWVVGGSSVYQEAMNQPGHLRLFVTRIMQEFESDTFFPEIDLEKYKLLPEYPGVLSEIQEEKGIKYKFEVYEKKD
Description: Inhibitory activity against rat liver Dihydrofolate reductase

The target of assay [3] is Dihydrofolate reductase (Homo sapiens, UniProt P00374). Kind of assay: Inhibitory activity against Leu22-Phe mutant human Dihydrofolate reductase.
The target of assay [4] is T3, Dihydrofolate reductase (Homo sapiens, UniProt P00374).
T3 sequence (P00374 whole entry): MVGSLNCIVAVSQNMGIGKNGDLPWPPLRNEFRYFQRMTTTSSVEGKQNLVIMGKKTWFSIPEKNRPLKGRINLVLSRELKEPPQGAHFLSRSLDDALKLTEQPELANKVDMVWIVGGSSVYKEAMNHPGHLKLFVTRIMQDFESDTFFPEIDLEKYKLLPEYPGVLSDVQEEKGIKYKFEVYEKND
Nature of the assay: Inhibitory compound against Wild-type human DHFR.

Assay [5] has as its target T4, Bifunctional dihydrofolate reductase-thymidylate synthase (Toxoplasma gondii, UniProt Q07422).
T4 sequence (Q07422 whole entry): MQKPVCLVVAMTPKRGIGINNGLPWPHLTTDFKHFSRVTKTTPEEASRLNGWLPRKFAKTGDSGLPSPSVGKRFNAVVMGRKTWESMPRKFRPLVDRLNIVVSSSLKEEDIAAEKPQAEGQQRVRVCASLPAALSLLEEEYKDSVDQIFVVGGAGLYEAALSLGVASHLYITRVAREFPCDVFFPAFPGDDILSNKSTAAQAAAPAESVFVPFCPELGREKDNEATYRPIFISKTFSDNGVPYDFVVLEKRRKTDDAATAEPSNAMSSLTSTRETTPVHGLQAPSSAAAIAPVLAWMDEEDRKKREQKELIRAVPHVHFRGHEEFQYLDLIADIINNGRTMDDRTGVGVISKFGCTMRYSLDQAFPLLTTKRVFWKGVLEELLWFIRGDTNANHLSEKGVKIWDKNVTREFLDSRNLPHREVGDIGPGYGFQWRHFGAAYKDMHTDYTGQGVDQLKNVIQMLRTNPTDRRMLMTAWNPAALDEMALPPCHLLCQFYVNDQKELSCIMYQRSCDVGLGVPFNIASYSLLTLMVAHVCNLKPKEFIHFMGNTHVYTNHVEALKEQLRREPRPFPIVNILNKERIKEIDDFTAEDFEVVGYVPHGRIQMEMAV
Description: Inhibitory activity against Toxoplasma gondii Dihydrofolate reductase

The target in assay [6] is T3, Dihydrofolate reductase. Kind of assay: Inhibitory activity against Wild-type human DHFR.

As usually defined, the IC50 is the concentration at which inhibition is half-maximal. Higher therefore signals lower potency. As usually defined, the Ki is a measure of affinity in units of concentration, obtained from inhibition or displacement. The low end stands for higher affinity, the high end for lower affinity. For the compound `COc1cc(N(C)Cc2cccc3nc(N)nc(N)c23)cc(OC)c1OC`, the IC50 on Dihydrofolate reductase [1] was above 20000 nM; at Dihydrofolate reductase [2] it was 53000 nM; in assay [5], above 20000 nM. Further, the inhibition constant Ki on Dihydrofolate reductase [3] is 49 nM; on Dihydrofolate reductase [4] it was above 500 nM.
As for `COc1ccc(OC)c(C#Cc2cccc3nc(N)nc(N)c23)c1`, the IC50 (against Dihydrofolate reductase [1]; at Dihydrofolate reductase [2]; in assay [5]) was above 18000 nM throughout. For the same compound, the values for the Ki on Dihydrofolate reductase [3] and at Dihydrofolate reductase [4] were 140 nM and above 500 nM, respectively.
As to `Nc1nc(N)c2c(CNc3ccc(C(=O)NC(CCC(=O)O)C(=O)O)cc3)cccc2n1` (centres undefined), the inhibitory constant (Ki) was found to be 0.54 nM on Dihydrofolate reductase [6] and 2.7 nM on Dihydrofolate reductase [3].
For the compound `Nc1nc(N)c2c(/C=C/c3ccccc3)cccc2n1`, the IC50 at Dihydrofolate reductase [1] is 10000 nM; against Dihydrofolate reductase [2] it was 1500 nM; in assay [5], 1200 nM. The same compound came in with a Ki on Dihydrofolate reductase [3] of 1.8 nM.
Regarding `COc1cc(NCc2cccc3nc(N)nc(N)c23)cc(OC)c1OC`, the IC50 (against Dihydrofolate reductase [1]; on Dihydrofolate reductase [2]; in assay [5]) was above 20000 nM throughout. Further, the results for the Ki at Dihydrofolate reductase [3] and on Dihydrofolate reductase [4] were 310 nM and above 500 nM, respectively.
As for `Nc1nc(N)c2cc(CNc3ccc(C(=O)NC(CCC(=O)O)C(=O)O)cc3)ccc2n1` (centres undefined), the Ki at Dihydrofolate reductase [6] is 0.00089 nM; on Dihydrofolate reductase [3] it was 0.01 nM.
With `Nc1nc(N)c2c(CCc3ccccc3)cccc2n1`, the IC50 at Dihydrofolate reductase [1] was 3200 nM; against Dihydrofolate reductase [2], 510 nM; in assay [5] it was 370 nM. Besides, the results for the Ki on Dihydrofolate reductase [3] and on Dihydrofolate reductase [4] were 2.9 nM and 23 nM, respectively.
As to `COc1ccc(OC)c(CCc2cccc3nc(N)nc(N)c23)c1`, the IC50 against Dihydrofolate reductase [1] worked out at 19000 nM; on Dihydrofolate reductase [2], 4100 nM; in assay [5] it was 5900 nM. Also, the Ki at Dihydrofolate reductase [3] was 4.2 nM; on Dihydrofolate reductase [4] it was 41 nM.
With `COc1ccc(OC)c(NCc2cccc3nc(N)nc(N)c23)c1`, the IC50 (at Dihydrofolate reductase [1]; at Dihydrofolate reductase [2]; in assay [5]) was above 5000 nM throughout. This compound also returned a Ki at Dihydrofolate reductase [3] of 33 nM.
Regarding `Nc1nc(N)c2c(C#Cc3ccccc3)cccc2n1`, the IC50 (against Dihydrofolate reductase [1]; against Dihydrofolate reductase [2]; in assay [5]) was above 30000 nM in each case. For the same compound, the Ki on Dihydrofolate reductase [6] was above 500 nM; at Dihydrofolate reductase [3], 96.3 nM.
As to `COc1ccc(OC)c(N(C)Cc2cccc3nc(N)nc(N)c23)c1`, the IC50 was above 40000 nM against Dihydrofolate reductase [1], 84000 nM at Dihydrofolate reductase [2] and above 40000 nM in assay [5]. Besides, the results for the Ki on Dihydrofolate reductase [3] and at Dihydrofolate reductase [4] were 250 nM and above 500 nM, respectively.
For the compound `COc1cc(CCc2cccc3nc(N)nc(N)c23)cc(OC)c1OC`, the IC50 on Dihydrofolate reductase [1] was 14000 nM; against Dihydrofolate reductase [2], 3700 nM; in assay [5], 930 nM. Moreover, the Ki at Dihydrofolate reductase [3] was 4.3 nM; on Dihydrofolate reductase [4] it was 72 nM.
For `COc1ccc(OC)c(Cc2cnc3nc(N)nc(N)c3c2C)c1` [PIRITREXIM], the Ki worked out at 33 nM at Dihydrofolate reductase [6] and 38 nM on Dihydrofolate reductase [3].
